Results on nine compounds are retold here after ChEMBL document CHEMBL1795320, “Synthesis and antibacterial activity of novel 4″-O-benzimidazolyl clarithromycin derivatives” (2011).

Common to all, as to format: functional
The subject of test [1] is Streptococcus pneumoniae. Nature of the test: Antibacterial activity against erythromycin-resistant Streptococcus pneumoniae AB11 expressing erm and mef gene by broth microdilution method. A general note: Dilution methods test growth across graded concentrations, often in twofold steps.
Test [2] relates to Streptococcus pneumoniae. Nature of the test: Antibacterial activity against erythromycin-resistant Streptococcus pneumoniae B1 expressing erm gene by broth microdilution method.
Test [3] deals with Staphylococcus aureus. As to the kind of experiment: Antibacterial activity against erythromycin-susceptible Staphylococcus aureus ATCC 25923 by broth microdilution method.
Test [4] deals with Streptococcus pneumoniae. As to the kind of experiment: Antibacterial activity against erythromycin-resistant Streptococcus pneumoniae A22072 expressing mef gene by broth microdilution method.
Test [5] deals with Streptococcus pneumoniae. As to the kind of experiment: Antibacterial activity against erythromycin-susceptible Streptococcus pneumoniae ATCC 49619 by broth microdilution method.

Values after ≈ are worked out from the molar mass of the structure shown.

Usually MIC stands for the smallest concentration in the dilution series that meets the test's criterion for growth inhibition. Higher therefore signals a need for much substance.

On to `CC[C@H]1OC(=O)[C@H](C)[C@@H](O[C@H]2C[C@@](C)(OC)[C@@H](OC(=O)NNC(=O)c3ccc4[nH]c(-c5cccc([N+](=O)[O-])c5)nc4c3)[C@H](C)O2)[C@H](C)[C@@H](O[C@@H]2O[C@H](C)C[C@H](N(C)C)[C@H]2O)[C@](C)(OC)C[C@@H](C)C(=O)[C@H](C)[C@@H](O)[C@]1(C)O`, for which the MIC stood at 128 µg/mL (≈ 119 µM) in test [1]; 64 µg/mL (≈ 59.7 µM) in test [2]; 0.5 µg/mL (≈ 0.467 µM) in test [3]; 1 µg/mL (≈ 0.934 µM) in test [4]; 0.25 µg/mL (≈ 0.233 µM) in test [5].

Turning to `CC[C@H]1OC(=O)[C@H](C)[C@@H](O[C@H]2C[C@@](C)(OC)[C@@H](OC(=O)NNC(=O)c3ccc4[nH]c(-c5ccc(C(F)(F)F)cc5)nc4c3)[C@H](C)O2)[C@H](C)[C@@H](O[C@@H]2O[C@H](C)C[C@H](N(C)C)[C@H]2O)[C@](C)(OC)C[C@@H](C)C(=O)[C@H](C)[C@@H](O)[C@]1(C)O`, the minimum inhibitory concentration (MIC) in test [1] was determined as 8 µg/mL (≈ 7.31 µM); in test [2] it was 8 µg/mL (≈ 7.31 µM); in test [3], 0.5 µg/mL (≈ 0.457 µM); in test [4] it was 0.06 µg/mL (≈ 0.0548 µM); in test [5], 0.25 µg/mL (≈ 0.228 µM).

As to `CC[C@H]1OC(=O)[C@H](C)[C@@H](O[C@H]2C[C@@](C)(OC)[C@@H](OC(=O)NNC(=O)c3ccc4[nH]c(-c5ccc(Br)cc5)nc4c3)[C@H](C)O2)[C@H](C)[C@@H](O[C@@H]2O[C@H](C)C[C@H](N(C)C)[C@H]2O)[C@](C)(OC)C[C@@H](C)C(=O)[C@H](C)[C@@H](O)[C@]1(C)O`, the MIC in test [1] amounted to 16 µg/mL (≈ 14.5 µM); in test [2], 16 µg/mL (≈ 14.5 µM); in test [3] it was 1 µg/mL (≈ 0.905 µM); in test [4], 0.06 µg/mL (≈ 0.0543 µM); in test [5] it was 0.25 µg/mL (≈ 0.226 µM).

With `CC[C@H]1OC(=O)[C@H](C)[C@@H](O[C@H]2C[C@@](C)(OC)[C@@H](OC(=O)NNC(=O)c3ccc4[nH]cnc4c3)[C@H](C)O2)[C@H](C)[C@@H](O[C@@H]2O[C@H](C)C[C@H](N(C)C)[C@H]2O)[C@](C)(OC)C[C@@H](C)C(=O)[C@H](C)[C@@H](O)[C@]1(C)O`, the minimal inhibitory concentration (MIC) in test [1] was 32 µg/mL (≈ 33.7 µM); in test [2], 32 µg/mL (≈ 33.7 µM); in test [3] it was 0.5 µg/mL (≈ 0.526 µM); in test [4], 1 µg/mL (≈ 1.05 µM); in test [5], 0.12 µg/mL (≈ 0.126 µM).

Turning to `CC[C@H]1OC(=O)[C@H](C)[C@@H](O[C@H]2C[C@@](C)(OC)[C@@H](OC(=O)NNC(=O)c3ccc4[nH]c(C)nc4c3)[C@H](C)O2)[C@H](C)[C@@H](O[C@@H]2O[C@H](C)C[C@H](N(C)C)[C@H]2O)[C@](C)(OC)C[C@@H](C)C(=O)[C@H](C)[C@@H](O)[C@]1(C)O`, the minimal inhibitory concentration (MIC) in test [1] stood at 64 µg/mL (≈ 66.4 µM); in test [2], 8 µg/mL (≈ 8.3 µM); in test [3], 0.5 µg/mL (≈ 0.519 µM); in test [4], 1 µg/mL (≈ 1.04 µM); in test [5] it was 0.12 µg/mL (≈ 0.124 µM).

For `CC[C@H]1OC(=O)[C@H](C)[C@@H](O[C@H]2C[C@@](C)(OC)[C@@H](OC(=O)NNC(=O)c3ccc4[nH]c(C(F)(F)F)nc4c3)[C@H](C)O2)[C@H](C)[C@@H](O[C@@H]2O[C@H](C)C[C@H](N(C)C)[C@H]2O)[C@](C)(OC)C[C@@H](C)C(=O)[C@H](C)[C@@H](O)[C@]1(C)O`, the minimum inhibitory concentration (MIC) in test [1] stood at 64 µg/mL (≈ 62.9 µM); in test [2], 32 µg/mL (≈ 31.4 µM); in test [3] it was 0.25 µg/mL (≈ 0.246 µM); in test [4], 0.12 µg/mL (≈ 0.118 µM); in test [5] it was 0.12 µg/mL (≈ 0.118 µM).

`CCc1nc2cc(C(=O)NNC(=O)O[C@H]3[C@H](C)O[C@@H](O[C@H]4[C@H](C)[C@@H](O[C@@H]5O[C@H](C)C[C@H](N(C)C)[C@H]5O)[C@](C)(OC)C[C@@H](C)C(=O)[C@H](C)[C@@H](O)[C@](C)(O)[C@@H](CC)OC(=O)[C@@H]4C)C[C@@]3(C)OC)ccc2[nH]1`: the MIC in test [1] came out at 64 µg/mL (≈ 65.4 µM); in test [2], 32 µg/mL (≈ 32.7 µM); in test [3] it was 0.5 µg/mL (≈ 0.511 µM); in test [4], 0.12 µg/mL (≈ 0.123 µM); in test [5], 0.25 µg/mL (≈ 0.256 µM).

`CCCc1nc2cc(C(=O)NNC(=O)O[C@H]3[C@H](C)O[C@@H](O[C@H]4[C@H](C)[C@@H](O[C@@H]5O[C@H](C)C[C@H](N(C)C)[C@H]5O)[C@](C)(OC)C[C@@H](C)C(=O)[C@H](C)[C@@H](O)[C@](C)(O)[C@@H](CC)OC(=O)[C@@H]4C)C[C@@]3(C)OC)ccc2[nH]1`: the minimal inhibitory concentration (MIC) in test [1] is 64 µg/mL (≈ 64.5 µM); in test [2], 64 µg/mL (≈ 64.5 µM); in test [3], 0.25 µg/mL (≈ 0.252 µM); in test [4], 0.12 µg/mL (≈ 0.121 µM); in test [5] it was 0.12 µg/mL (≈ 0.121 µM).

Regarding `CC[C@H]1OC(=O)[C@H](C)[C@@H](O[C@H]2C[C@@](C)(OC)[C@@H](OC(=O)NNC(=O)c3ccc4[nH]c(C(C)C)nc4c3)[C@H](C)O2)[C@H](C)[C@@H](O[C@@H]2O[C@H](C)C[C@H](N(C)C)[C@H]2O)[C@](C)(OC)C[C@@H](C)C(=O)[C@H](C)[C@@H](O)[C@]1(C)O`, the minimal inhibitory concentration (MIC) in test [1] came to 64 µg/mL (≈ 64.5 µM); in test [2], 16 µg/mL (≈ 16.1 µM); in test [3], 0.12 µg/mL (≈ 0.121 µM); in test [4], 0.12 µg/mL (≈ 0.121 µM); in test [5], 0.12 µg/mL (≈ 0.121 µM).
